Results from patent US5239084A, “Substituted aminoalkyl biphenyl compounds” (Hoffmann-La Roche Inc., priority 1990, dated 1993).
Several values for one entry are separate records, joined by “and”; a condition that tells them apart may be missing. Equal values may be shown once. Where a name gives a salt, the structure may show the parent alone.

Legend:
C. albicans 3153 = assay: agar dilution method, C. albicans 3153; type: cell-based, Candida albicans
Candida albicans = assay: agar dilution method, synergism with sterol biosynthesis inhibitors; type: cell-based; conditions: in combination with ketoconazole or terbinafine; synergistic when FIC <0.5
C. albicans 3152 = assay: agar dilution method, C. albicans 3152; type: cell-based, Candida albicans
[1] = molecular target: T1, 2,3-epoxysqualene-lanosterol cyclase (Candida albicans, UniProt Q04782); assay: inhibition of 2,3-epoxysqualene-lanosterol cyclase from Candida albicans (cell-free extract, 14C-squalene epoxide); type: biochemical
T1 construct: there was obtained a cell-free extract (CFE) as the supernatant; endogenous in cells; host or cells: Candida albicans culture, protoplasts ruptured, cell-free extract (10000 g supernatant)

C. albicans H12 = assay: agar dilution method, C. albicans H12; type: cell-based, Candida albicans
C. albicans H29 = assay: agar dilution method, C. albicans H29; type: cell-based, Candida albicans
[2] = acute toxicity, single oral administration to mice; conditions: mouse, in vivo
Procedure: The IC50 values were determined graphically and were given in μg of test substance per mL. Table I hereinafter contains IC50 values determined in the above test for representative members of the class of compound defined by formula I as well as concerning the acute toxicity in the case of single oral administration to mice (LD50 in mg/kg).

C. albicans B4 = assay: agar dilution method, C. albicans B4; type: cell-based, Candida albicans
C. albicans B5 = assay: agar dilution method, C. albicans B5; type: cell-based, Candida albicans
[3] = in combination with terbinafine
[4] = in combination with ketoconazole, hydrochloride
[5] = in combination with ketoconazole, synergistic when FIC <0.5, hydrochloride
[6] = in combination with terbinafine, synergistic when FIC <0.5

T1 sequence (Q04782 whole entry): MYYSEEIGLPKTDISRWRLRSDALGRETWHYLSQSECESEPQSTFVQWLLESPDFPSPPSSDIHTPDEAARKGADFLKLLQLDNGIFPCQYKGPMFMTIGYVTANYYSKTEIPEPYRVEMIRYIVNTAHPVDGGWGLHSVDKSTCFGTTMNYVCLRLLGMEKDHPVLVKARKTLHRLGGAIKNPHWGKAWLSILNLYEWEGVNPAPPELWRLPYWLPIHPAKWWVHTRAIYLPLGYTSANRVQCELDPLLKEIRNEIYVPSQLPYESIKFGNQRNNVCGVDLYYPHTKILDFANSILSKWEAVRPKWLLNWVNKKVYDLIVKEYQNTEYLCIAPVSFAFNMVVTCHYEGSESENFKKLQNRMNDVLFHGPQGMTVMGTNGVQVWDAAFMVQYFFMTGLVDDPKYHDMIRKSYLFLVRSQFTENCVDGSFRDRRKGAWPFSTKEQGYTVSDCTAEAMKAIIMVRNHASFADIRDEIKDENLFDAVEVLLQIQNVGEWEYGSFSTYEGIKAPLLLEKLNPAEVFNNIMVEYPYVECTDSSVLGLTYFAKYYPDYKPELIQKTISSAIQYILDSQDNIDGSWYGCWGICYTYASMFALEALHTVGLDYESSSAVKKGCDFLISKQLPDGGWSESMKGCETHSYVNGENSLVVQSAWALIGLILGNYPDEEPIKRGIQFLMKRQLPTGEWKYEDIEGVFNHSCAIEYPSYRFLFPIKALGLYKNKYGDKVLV

Q: Which results are given for `C=CCN(C)Cc1ccc(-c2ccc(C(=O)c3ccccc3)cc2)cc1` [Compound 14, 4'-[(allylmethylamino)methyl-4-biphenylylphenyl ketone hydrochloride]?
A: MIC (C. albicans 3153; Candida albicans, 3153, 48 h, alone, 37° C., 2 days): 1 µg/mL; MIC of compound in combination (C. albicans 3153; [3]): 0.25 µg/mL; FIC (C. albicans 3153; in combination with terbinafine, synergistic when FIC <0.5, hydrochloride): 0.281 and 0.561; synergistic activity (Candida albicans): confirm the synergistic activity; MIC (C. albicans 3152; Candida albicans, 48 h, alone, 37° C., 2 days): 1 µg/mL; MIC of compound in combination (C. albicans 3152; [4]): 0.06 µg/mL and 0.12 µg/mL; FIC (C. albicans 3152; [5]): 0.187 and 0.156; IC50 [1]: 52.7 nM; MIC (C. albicans H12; Candida albicans, H12, 48 h, alone, 37° C., 2 days): 1 µg/mL; MIC of compound in combination (C. albicans H12; [4]): 0.12 µg/mL and 0.06 µg/mL; FIC (C. albicans H12; [5]): 0.133 and 0.125; MIC of compound in combination (C. albicans H12; [3]): 0.5 µg/mL; FIC (C. albicans H12; [6]): 0.516; MIC (C. albicans H29; Candida albicans, H29, 48 h, alone, 37° C., 2 days): 1 µg/mL; MIC of compound in combination (C. albicans H29; [4]): 0.06 µg/mL and 0.12 µg/mL; MIC of compound in combination (C. albicans H29; [3]): 0.25 µg/mL; FIC (C. albicans H29; [6]): 0.375; LD50 [2]: > 4000 mg/kg; MIC (C. albicans B4; Candida albicans, B4, 48 h, alone, 37° C., 2 days): 2 µg/mL; MIC of compound in combination (C. albicans B4; [4]): 0.12 µg/mL and 0.06 µg/mL; FIC (C. albicans B4; [5]): 0.078 and 0.040; MIC of compound in combination (C. albicans B4; [3]): 1 µg/mL; FIC (C. albicans B4; [6]): 0.531; MIC (C. albicans B5; Candida albicans, B5, 48 h, alone, 37° C., 2 days): 1 µg/mL; MIC of compound in combination (C. albicans B5; [4]): 0.06 µg/mL and 0.12 µg/mL; FIC (C. albicans B5; [5]): 0.125 and 0.25; MIC of compound in combination (C. albicans B5; [3]): 0.25 µg/mL; FIC (C. albicans B5; [6]): 0.375
